# Assays:
# Assay type in all cases: physicochemical
# [1] = Particle size distribution by laser diffraction (Sympatec) after processing; conditions: for D10 / D50 / D90: Compound A, PSD; for X10: micronized GP, sampled immediately after processing
# [2] = Residual solvent content by GC analysis
# Description: Residual solvent content of the material from different batches was also analyzed. […] Residual solvent is partially removed using primary (ethanol) and secondary (water) conditioning.
# Compound A (IUPAC: 7-[(1R)-2-[2-[2-fluoro-5-[[4-(2-isopropylthiazole-4-carbonyl)-1-oxa-4,9-diazaspiro[5.5]undecan-9-yl]methyl]phenyl]ethylamino]-1-hydroxy-ethyl]-4-hydroxy-3H-1,3-benzothiazol-2-one; di[[(1S,4R)-7,7-dimethyl-2-oxo-norbornan-1-yl]methanesulfonic acid] salt) was received with a 3.8% ethanol residual content. This material had been previously micronized and conditioned according to the present description to reduce the presence of isopropyl (IPA) and ethanol (EtOH) by solvent exchange/removal. The material was exposed to another conditioning gas that included water vapor, and was mixed with the conditioning gas in a conditioning zone for approximately 1.5 hours.
# [3] = Particle size distribution by laser diffraction (Sympatec) after processing; conditions: for D10 / D50 / D90: micronized/annealed GP, scale-up ~1 kg batches, mean of n=3 replicates per collector; for Physical stability after micronization judged from size distribution: laser diffraction, Tables 4 and 5; for X50 / X90: micronized GP, sampled immediately after processing
# Source text: When referred to herein, the term “optical diameter” indicates the size of a particle as measured using a laser diffraction particle size analyzer equipped with a dry powder dispenser (e.g., Sympatec GmbH, Clausthal-Zellerfeld, Germany).
# (§1) A portion of the micronized GP was also conditioned using an in-process conditioning system wherein nitrogen conditioning gas was supplied to the in-process conditioning system and was controlled for flow rate, temperature and humidity. The conditioning gas was humidified through a droplet evaporation chamber after which it was directed to a mixing zone. In the mixing zone, the conditioning gas was mixed with the jet-milled aerosol comprising the micronized GP. The aerosol then entered a conditioning zone where annealing of the micronized GP occurred. The particle residence time through the conditioning zone was adjusted by means of the conditioning zone chamber geometry and/or the gas flow rate through the conditioning zone chamber. After passing through the conditioning zone, the micronized GP particles reached the cyclone-collection zone where the solid particles were separated from the gas phase and transported to a collection vessel. Upon completion of the batch processing, the collector was disengaged and transferred to a glove box for sampling. The sampling occurred in a <5% relative humidity environment. Samples were then analyzed for particle size distribution and amorphous content.
# Both micronized sucrose batches were analyzed for particle size distribution by Sympatec laser diffraction.
# [4] = Amorphous content by (dynamic) vapor sorption; conditions: for % Amorphous Content Initial: micronized GP batches
# Source text: as §1
# The amorphous content by vapor sorption and particle morphology for both batches were also assessed. FIG. 9 provides the ethanol vapor sorption isotherm at 25° C. for both batches of micronized budesonide.
# The amorphous content by vapor sorption and particle morphology for both batches were also assessed. FIG. 11 provides the ethanol vapor sorption isotherm at 25° C. for both batches of micronized fluticasone.
# All batches were also analyzed for amorphous content by dynamic vapor sorption using n=2 replicates per collector.
# The amorphous content by vapor sorption and particle morphology for both batches of micronized sucrose were also assessed. FIG. 13 provides the water vapor sorption isotherm at 25° C. for both batches of micronized sucrose.
# [5] = Compound A batches of Example 6, residual solvent, listed as Compound A, 30° C./55% RS, 30° C./70% RH
# [6] = Compound A batches of Example 6
# [7] = Compound A batches of Example 6, residual solvent
# [8] = Compound A batches of Example 6, residual solvent, listed as Compound A, Raw (un-milled)
# [9] = micronized Compound A of Example 7, before/after about […] with water-vapor conditioning gas
# [10] = listed as Batch A - Collector 1
# [11] = listed as Batch A - Collector 2
# [12] = conditioned GP, dynamic vapor sorption, n=2 replicates per collector
compound,measurement,setting,value
"7-[(1R)-2-[2-[2-fluoro-5-[[4-(2-isopropylthiazole-4-carbonyl)-1-oxa-4,9-diazaspiro[5.5]undecan-9-yl]methyl]phenyl]ethylamino]-1-hydroxy-ethyl]-4-hydroxy-3H-1,3-benzothiazol-2-one; di[[(1S,4R)-7,7-dimethyl-2-oxo-norbornan-1-yl]methanesulfonic acid] salt [Compound A, 30° C./55% RS (ethanol); 30° C./70% RH (water)]",D10,[1],0.6 μm
same,D50,[1],1.7 μm
same,D90,[1],3.2 μm
same,% EtOH (w/w),[2]; [5],1.2% (w/w)
same,% IPA (w/w),[2]; [5],2.1% (w/w)
same,% Water,"[2]; Compound A batches of Example 6, listed as Compound A, 30° C./55% RS, 30° C./70% RH",3.4%
"7-[(1R)-2-[2-[2-fluoro-5-[[4-(2-isopropylthiazole-4-carbonyl)-1-oxa-4,9-diazaspiro[5.5]undecan-9-yl]methyl]phenyl]ethylamino]-1-hydroxy-ethyl]-4-hydroxy-3H-1,3-benzothiazol-2-one; di[[(1S,4R)-7,7-dimethyl-2-oxo-norbornan-1-yl]methanesulfonic acid] salt [Compound A, 30° C./70% RH]",D10,[1],0.6 μm
same,D50,[1],1.6 μm
same,D90,[1],3.1 μm
same,% Water,[2]; [6],3.4%
same,% EtOH (w/w),[2]; [7],0.1% (w/w)
same,% IPA (w/w),[2]; [7],3.6% (w/w)
"7-[(1R)-2-[2-[2-fluoro-5-[[4-(2-isopropylthiazole-4-carbonyl)-1-oxa-4,9-diazaspiro[5.5]undecan-9-yl]methyl]phenyl]ethylamino]-1-hydroxy-ethyl]-4-hydroxy-3H-1,3-benzothiazol-2-one; di[[(1S,4R)-7,7-dimethyl-2-oxo-norbornan-1-yl]methanesulfonic acid] salt [Compound A, Raw (Un-milled)]",D10,[1],1.1 μm
same,D50,[1],3.7 μm
same,D90,[1],16.3 μm
same,% EtOH (w/w),[2]; [8],0.0% (w/w)
same,% IPA (w/w),[2]; [8],4.7% (w/w)
same,% Water,"[2]; Compound A batches of Example 6, listed as Compound A, Raw (un-milled)",3.1%
"7-[(1R)-2-[2-[2-fluoro-5-[[4-(2-isopropylthiazole-4-carbonyl)-1-oxa-4,9-diazaspiro[5.5]undecan-9-yl]methyl]phenyl]ethylamino]-1-hydroxy-ethyl]-4-hydroxy-3H-1,3-benzothiazol-2-one; di[[(1S,4R)-7,7-dimethyl-2-oxo-norbornan-1-yl]methanesulfonic acid] salt [Compound A, Unannealed]",D10,[1],0.6 μm
same,D50,[1],1.6 μm
same,D90,[1],3.1 μm
same,% Water,[2]; [6],3.0%
same,% EtOH (w/w),[2]; [7],0.2% (w/w)
same,% IPA (w/w),[2]; [7],3.9% (w/w)
"7-[(1R)-2-[2-[2-fluoro-5-[[4-(2-isopropylthiazole-4-carbonyl)-1-oxa-4,9-diazaspiro[5.5]undecan-9-yl]methyl]phenyl]ethylamino]-1-hydroxy-ethyl]-4-hydroxy-3H-1,3-benzothiazol-2-one; di[[(1S,4R)-7,7-dimethyl-2-oxo-norbornan-1-yl]methanesulfonic acid] salt [Compound A]",Ethanol residual content as received,"[2]; Compound A as received, Example 7",3.8%
same,Residual isopropyl alcohol solvent after manufacture,"[2]; Compound A before micronization, Example 6",~5%
"7-[(1R)-2-[2-[2-fluoro-5-[[4-(2-isopropylthiazole-4-carbonyl)-1-oxa-4,9-diazaspiro[5.5]undecan-9-yl]methyl]phenyl]ethylamino]-1-hydroxy-ethyl]-4-hydroxy-3H-1,3-benzothiazol-2-one; di[[(1S,4R)-7,7-dimethyl-2-oxo-norbornan-1-yl]methanesulfonic acid] salt [Micronized Compound A, 30° C./70% RH (water)]",% EtOH (w/w),[2]; [9],0.1% (w/w)
same,% IPA (w/w),[2]; [9],0.0% (w/w)
same,% Water,[2]; [9],3.6%
"7-[(1R)-2-[2-[2-fluoro-5-[[4-(2-isopropylthiazole-4-carbonyl)-1-oxa-4,9-diazaspiro[5.5]undecan-9-yl]methyl]phenyl]ethylamino]-1-hydroxy-ethyl]-4-hydroxy-3H-1,3-benzothiazol-2-one; di[[(1S,4R)-7,7-dimethyl-2-oxo-norbornan-1-yl]methanesulfonic acid] salt [Micronized Compound A, As Received]",% EtOH (w/w),[2]; [9],3.8% (w/w)
same,% IPA (w/w),[2]; [9],0.1% (w/w)
same,% Water,[2]; [9],3.1%
"C[N+]1(C)CCC(OC(=O)C(O)(c2ccccc2)C2CCCC2)C1 (single isomer, unassigned) [Batch A, Glycopyrrolate]",D10,[3]; [10],0.52 μm
same,D50,[3]; [10],1.48 μm
same,D90,[3]; [10],3.02 μm
same,D10,[3]; [11],0.52 μm
same,D50,[3]; [11],1.47 μm
same,D90,[3]; [11],2.99 μm
same,"Calculated Amorphous Content, Collector 1",[4]; [12],2.65%
same,"Calculated Amorphous Content, Collector 2",[4]; [12],2.35%
"C[N+]1(C)CCC(OC(=O)C(O)(c2ccccc2)C2CCCC2)C1 (stereo not shown) [Batch 1A, Glycopyrrolate]",% Amorphous Content Initial,[4],17.9%
"C[N+]1(C)CCC(OC(=O)C(O)(c2ccccc2)C2CCCC2)C1 (stereo not shown) [Batch 2B, Glycopyrrolate]",% Amorphous Content Initial,[4],5.3%
"C[N+]1(C)CCC(OC(=O)C(O)(c2ccccc2)C2CCCC2)C1 (stereo not shown) [Batch 2C, Glycopyrrolate]",% Amorphous Content Initial,[4],0.9%
"C[N+]1(C)CCC(OC(=O)C(O)(c2ccccc2)C2CCCC2)C1 (stereo not shown) [Batch 2D, Glycopyrrolate]",% Amorphous Content Initial,[4],0.9%
"C[N+]1(C)CCC(OC(=O)C(O)(c2ccccc2)C2CCCC2)C1 (stereo not shown) [Batch 2E, Glycopyrrolate]",% Amorphous Content Initial,[4],2.6%
"C[N+]1(C)CCC(OC(=O)C(O)(c2ccccc2)C2CCCC2)C1 (stereo not shown) [Batch 2F, Glycopyrrolate]",% Amorphous Content Initial,[4],0.9%
"C[N+]1(C)CCC(OC(=O)C(O)(c2ccccc2)C2CCCC2)C1 (stereo not shown) [Batch 2G, Glycopyrrolate]",% Amorphous Content Initial,[4],2.3%
"CCCC1O[C@@H]2C[C@H]3[C@@H]4CCC5=CC(=O)C=C[C@]5(C)[C@H]4[C@@H](O)C[C@]3(C)[C@]2(C(=O)CO)O1 (stereo partly shown) [Micronized Budesonide, Batch 1 (unannealed)]",Physical stability after micronization judged from size distribution,[3],potential agglomeration
"CCCC1O[C@@H]2C[C@H]3[C@@H]4CCC5=CC(=O)C=C[C@]5(C)[C@H]4[C@@H](O)C[C@]3(C)[C@]2(C(=O)CO)O1 (stereo partly shown) [Micronized Budesonide, Batch 2 (annealed)]",Physical stability after micronization judged from size distribution,[3],good physical stability
"C[N+]1(C)CCC(OC(=O)C(O)(c2ccccc2)C2CCCC2)C1 (stereo not shown) [Micronized GP, In-Process Conditioning, Glycopyrrolate]",X10,[1],0.6 μm
same,X50,[3],1.5 μm
same,X90,[3],3.1 μm
"C[N+]1(C)CCC(OC(=O)C(O)(c2ccccc2)C2CCCC2)C1 (stereo not shown) [Micronized GP, Standard Jet Milling, Glycopyrrolate]",X10,[1],0.5 μm
same,X50,[3],1.4 μm
same,X90,[3],3.0 μm

# Source: patent US11471468B2, “Methods and systems for conditioning of particulate crystalline materials” (Pearl Therapeutics, Inc., priority 2013, dated 2022)
